The values that follow are results of earlier work, collected in patent publication US12558321B2, “Pharmaceutical formulation” (CIPLA LIMITED, priority 2018, dated 2026).

Molecules are shown by their SMILES.

In the case of `COC(=O)c1ccc2c(c1)NC(=O)/C2=C(\Nc1ccc(N(C)C(=O)CN2CCN(C)CC2)cc1)c1ccccc1` [Nintedanib], the “solubility at neutral conditions” value (neutral conditions) is on record as “poor solubility”. Further, for the setting “water”, the solubility in water result is on record as “slightly soluble in water”.
